Each structure is given as a SMILES string.

Consider one compound from patent publication US20040097737A1 (priority 2001, published 2004).

The experiment concerns patients diagnosed as acute attack of vertigo. Particulars: human, in vivo.

On to `OC(CCCN1CCCCC1)(c1ccccc1)c1ccccc1` [Diphenidol], for which the “Total effective (patients effective/sample)” value is 19/28 and the Total effective percentage was 67.9%.
